Measured values: patent publication US20200045965A1, “METHOD FOR THE CONTROL OF PLANT BACTERIAL DISEASES USING CARBOXAMIDE DERIVATIVES” (BAYER CROPSCIENCE AKTIENGESELLSCHAFT, priority 2016, published 2020)

What was measured:
[1] = log P by HPLC on reversed-phase column (EEC Directive 79/831 Annex V.A8); type: physicochemical; details: HPLC C18, 40° C., 0.1% aqueous formic acid and acetonitrile
Protocol: Table 1 provides the log P and NMR data (^1H) of compounds A1 to A20.
In table 1, the log P values were determined in accordance with EEC Directive 79/831 Annex V.A8 by HPLC (High Performance Liquid Chromatography) on a reversed-phase column (C 18), using the method described below:
Temperature: 40° C.; Mobile phases: 0.1% aqueous formic acid and acetonitrile; linear gradient from 10% acetonitrile to 90% acetonitrile.
Calibration was carried out using unbranched alkan-2-ones (comprising 3 to 16 carbon atoms) with known log P values (determination of the log P values by the retention times using linear interpolation between two successive alkanones). lambda-max-values were determined using UV-spectra from 200 nm to 400 nm and the peak values of the chromatographic signals.

Pseudomonas syringae = test: Field trials in vivo against Pseudomonas syringae on coffee tree, foliar spray
Protocol: EXAMPLE 1: TEST IN VIVO AGAINST PSEUDOMONAS SYRINGAE (COFFEE)
Two field trials were conducted to find out the efficacy of N-(5-chloro-2-isopropylbenzyl)-N-cyclopropyl-3-(difluoromethyl)-5-fluoro-1-methyl-1H-pyrazole-4-carboxamide (compound A5) against bacteria (Pseudomonas syringae) when sprayed on leaves of coffee tree.
The field trials were randomized, had 3 replicates and plot size was 20 m. The product was applied as an EC 100—formulation in a spray sequence consisting of three foliar applications, beginning in the growth stage EC59. The sprays were done with an interval of approximately 4 weeks (between treatments). About 3 and 11 weeks after the third application the efficacy of the compound against the bacterial pathogen Pseudomonas syringae was visually assessed as incidence of infested leaf rosettes or branches per plot (in %). Then the incidence values were converted into control (% Abbott).

Xanthomonas spp. = test: Field trial in vivo against bacterial leaf streak on spring wheat, foliar spray; set-up: species or system Xanthomonas translucens
Protocol: EXAMPLE 2: TEST IN VIVO AGAINST XANTHOMONAS TRANSLUCENS (WHEAT)
Field trials were conducted to test the efficacy of N-(5-chloro-2-isopropylbenzyl)-N-cyclopropyl-3-(difluoromethyl)-5-fluoro-1-methyl-1H-pyrazole-4-carboxamide (compound A5) in combination with the commercial standard Prosaro (a 1:1 combination of Prothioconazole and Tebuconazole) against bacterial leaf streak caused by Xanthomonas spp. when sprayed on leaves. A control without compound A5 was tested in same conditions.
The field trials were randomized, had 4 replicates and plot size was 15.24 m^2. Fertilization, herbicide- and insecticide applications were carried out according to the local agricultural practice.
N-(5-chloro-2-isopropylbenzyl)-N-cyclopropyl-3-(difluoromethyl)-5-fluoro-1-methyl-1H-pyrazole-4-carboxamide was applied as SC 280 formulation in 3 rates in combination with the commercial standard Prosaro. Test was conducted in a Spring wheat which was treated in growth stage EC 61 with one foliar application.
22 days after application the efficacy of the tested products against the bacterial leaf streak caused by Xanthomonas spp. was visually assessed. The effect was evaluated as preservation of remaining green leaves (GRNLVS) in a scale from 1-6 (meaning 1 best and 6 worst green leaf preservation)

Compound | logP [1] | effect on bacterial disease caused by Pseudomonas syringae in coffee (conclusion in words) (Pseudomonas syringae; based on the two field trials) | ABBOTT (%) leaf rosette 21 DA3 (Pseudomonas syringae; coffee, first trial (Table 1), 75 g a.i./ha, 21 days after third application) [%] | ABBOTT (%) branch 74 DA3 (Pseudomonas syringae; coffee, first trial (Table 1), 75 g a.i./ha, 74 days after third application) [%] | LEAF ROSETTE INCIDENCE (%) 21 DA3 (Pseudomonas syringae; coffee, first trial (Table 1), 75 g a.i./ha, EC 100, three foliar applications, 21 days after third application, untreated 12.2) [%] | ABBOTT (%) leaf rosette 20 DA3 (Pseudomonas syringae; coffee, second trial (Table 2), 75 g a.i./ha, 20 days after third application) [%] | LEAF ROSETTE INCIDENCE (%) 20 DA3 (Pseudomonas syringae; coffee, second trial (Table 2), 75 g a.i./ha, 20 days after third application, untreated 3.5) [%] | suppressing bacterial leaf streak caused by Xanthomonas spp. (conclusion in words) (Xanthomonas spp.)
N-cyclopropyl-3-(difluoromethyl)-5-fluoro-N-(2-isopropylbenzyl)-1-methyl-1H-pyrazole-4-carbothio-amide [Compound A20] | 4.36 |  |  |  |  |  |  | 
CC(C)c1ccc(Cl)cc1CN(C(=O)c1c(C(F)F)nn(C)c1F)C1CC1 [Compound A5, N-(5-chloro-2-isopropylbenzyl)-N-cyclopropyl-3-(difluoromethyl)-5-fluoro-1-methyl-1H-pyrazole-4-carboxamide] |  | suppresses the bacterial disease | 39.2 | 45 | 7.4 | 65.2 | 1.2 | proves the efficiency
